Article PMC4747383, “Design of a peptidic inhibitor that targets the dimer interface of a prototypic galectin” (Oncotarget, 2015)
Entries after “also recorded” stand apart in the source; their conditions may differ.

Key:
recombinant hGal-1 = assay: Disruption of hGal-1 dimers, native gel electrophoresis/Western blot; type: biochemical, human; conditions: recombinant hGal-1, 20 mM potassium phosphate pH 7.1, films overexposed, three independent experiments
Text: (§1) To measure the ability of the peptides to disrupt the formation of hGal-7 dimers, we used mild denaturing native gel electrophoresis, a commonly used approach to visualize monomer-dimer equilibrium (Fig. 1A and Supplementary Fig. S1). […] This specificity at disrupting hGal-7 dimer formation is provided by distinct three-dimensional arrangements between otherwise very similar galectin homologues. Indeed, while all monomeric galectins reveal identical topologies, dimer formation in hGal-7 proceeds through a “back-to-back” topology of the monomers while other galectins, including hGal-1 and hGal-2, adopt a “side-by-side” structural arrangement (Fig. 1B). This structural organization provides additional means to specifically target and disrupt galectin function.
(§2) Incubation of the recombinant B. hGal-1 and C. hGal-2 with hGal-7(129–135) was performed in the same potassium phosphate buffer. The effect of hGal-7(129–135) on the monomeric and dimeric forms of hGal-7/hGal-1/hGal-2 was assessed by Western blotting in native conditions with respective antibodies. The hGal-1/hGal-2 films were overexposed. PACAP28–38 was the control peptide used in order to ensure the specificity of hGal-7(129–135). […]
(§3) Human Gal-7 cDNA was cloned into pET-22b(+) using NdeI and HindIII restriction enzymes. […] Purified fractions were analyzed by SDS-PAGE. […]

recombinant hGal-2 = assay: Disruption of hGal-2 dimers, native gel electrophoresis/Western blot; type: biochemical, human; conditions: recombinant hGal-2, 20 mM potassium phosphate pH 7.1, films overexposed, three independent experiments
Text: as §1, §2, §3

recombinant hGal-7 = assay: Solid phase fluorescent binding assay on hGal-7; set-up: species or system human; conditions: hGal-7 10 μg/ml coated; unlabeled peptide (1 mM) 60 min, then biotin-labeled peptide 120 min, room temperature; Streptavidin R-phycoerythrin fluorescence; three independent experiments
Text: Results are representative of three independent experiments. Error bars represent standard deviation.

## H-LDSVRIP-NH2 [hGal-7(129–135), peptide corresponding to hGal-7 segment between residues 129–135]
Recombinant hGal-1
  disruption of hGal-1 homodimers: No such effect was observed
Recombinant hGal-2
  disruption of hGal-2 homodimers: No such effect was observed
Recombinant hGal-7
  binding to immobilized hGal-7: direct interaction; also recorded: bind hGal-7 in a concentration-dependent and specific manner
